From ChEMBL document CHEMBL1201862, “PubChem BioAssay data set” (2004)
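Briefly, cells in 96-well plates were exposed to five compound concentrations for 48 h, and endpoints were estimated by linear interpolation. GI50 is the concentration that inhibits growth by half.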 Calls of active or inactive are those of the source. Cut-off read from the data, not from the text of the source: active = GI50 up to about 1.1 µM and inactive = higher.

Columns and labels:
Test in all cases: growth of human tumour cells (NCI), 48 h
EKVX = test system: EKVX
HCT-15 = test system: HCT-15
UACC-257 = test system: UACC-257
OVCAR-3 = test system: OVCAR-3
SF-268 = test system: SF-268
K562 = test system: K562
SN12C = test system: SN12C
DU-145 = test system: DU-145
NCI/ADR-RES = test system: NCI/ADR-RES
OVCAR-5 = test system: OVCAR-5
HT-29 = test system: HT-29
Hs-578T = test system: Hs-578T
NCI-H460 = test system: NCI-H460
OVCAR-4 = test system: OVCAR-4
IGROV-1 = test system: IGROV-1
SK-MEL-2 = test system: SK-MEL-2
HCT-116 = test system: HCT-116
CCRF-CEM = test system: CCRF-CEM
SR = test system: SR

| SMILES | GI50 (EKVX) | GI50 (HCT-15) [µM] | GI50 (UACC-257) | GI50 (OVCAR-3) | GI50 (SF-268) | GI50 (K562) | GI50 (SN12C) | GI50 (DU-145) | GI50 (NCI/ADR-RES) | GI50 (OVCAR-5) | GI50 (HT-29) | GI50 (Hs-578T) | GI50 (NCI-H460) | GI50 (OVCAR-4) | GI50 (IGROV-1) | GI50 (SK-MEL-2) | GI50 (HCT-116) | GI50 (CCRF-CEM) | GI50 (SR) |
| --- | --- | --- | --- | --- | --- | --- | --- | --- | --- | --- | --- | --- | --- | --- | --- | --- | --- | --- | --- |
| C/C(CC/C(C)=N/O)=N\O | > 100 µM (inactive) | > 100 | > 100 µM (inactive) | > 100 µM (inactive) | > 100 µM (inactive) | > 100 µM (inactive) | > 100 µM (inactive) | > 100 µM (inactive) | > 100 µM (inactive) | > 100 µM (inactive) | > 100 µM (inactive) | > 100 µM (inactive) | > 100 µM (inactive) | > 100 µM (inactive) | > 100 µM (inactive) | > 100 µM (inactive) | > 100 µM (inactive) |  |  |
| O=S(=O)([N-]c1nc2ccccc2nc1-[n+]1ccccc1)c1ccccc1 | > 100 µM (inactive) | > 100 | > 100 µM (inactive) | > 100 µM (inactive) | > 100 µM (inactive) | 29.9 µM (inactive) | > 100 µM (inactive) |  | > 100 µM (inactive) | > 100 µM (inactive) | > 100 µM (inactive) | > 100 µM (inactive) | > 100 µM (inactive) | > 100 µM (inactive) | > 100 µM (inactive) | > 100 µM (inactive) | > 100 µM (inactive) | 10.8 µM (inactive) | 14.9 µM (inactive) |
| O=c1cc(N2CCOCC2)[nH]c(=O)n1-c1cccc(Cl)c1 | > 100 µM (inactive) | > 100 | > 100 µM (inactive) | > 100 µM (inactive) | > 100 µM (inactive) | > 100 µM (inactive) | > 100 µM (inactive) | > 100 µM (inactive) | > 100 µM (inactive) | > 100 µM (inactive) | > 100 µM (inactive) | > 100 µM (inactive) | > 100 µM (inactive) | > 100 µM (inactive) | > 100 µM (inactive) | > 100 µM (inactive) | > 100 µM (inactive) | > 100 µM (inactive) |  |
| COc1ccc(OC)c2c(Nc3ccc(S(=O)(=O)O)c4cc(S(=O)(=O)O)cc(S(=O)(=O)O)c34)cc(C)nc12 | > 100 µM (inactive) | > 100 | > 100 µM (inactive) | > 100 µM (inactive) | > 100 µM (inactive) | > 100 µM (inactive) | > 100 µM (inactive) | > 100 µM (inactive) | > 100 µM (inactive) | > 100 µM (inactive) | > 100 µM (inactive) | > 100 µM (inactive) | > 100 µM (inactive) | > 100 µM (inactive) | > 100 µM (inactive) | > 100 µM (inactive) | > 100 µM (inactive) | > 100 µM (inactive) |  |
| COc1cc2c(cc1O)c(O)cc1c3cc(OC)c(OC)cc3c[n+](C)c21 | > 100 µM (inactive) | > 100 | 51.8 µM (inactive) | 20.7 µM (inactive) | < 0.01 µM (active) | 5.04 µM (inactive) | 1.24 µM (inactive) | 7.52 µM (inactive) | > 85.9 µM (inactive) | > 100 µM (inactive) | 15.2 µM (inactive) | 4.23 µM (inactive) | 15.9 µM (inactive) | > 80.5 µM (inactive) |  | > 100 µM (inactive) | 23.1 µM (inactive) | 1.37 µM (inactive) |  |
| CNc1nc(C(N)=O)c(N)s1 | > 100 µM (inactive) | > 100 | > 100 µM (inactive) | > 100 µM (inactive) | > 100 µM (inactive) | > 100 µM (inactive) | > 100 µM (inactive) | > 100 µM (inactive) | > 100 µM (inactive) | > 100 µM (inactive) | > 100 µM (inactive) | > 100 µM (inactive) | > 100 µM (inactive) | > 100 µM (inactive) | > 100 µM (inactive) | > 100 µM (inactive) | > 100 µM (inactive) | > 100 µM (inactive) |  |
| O=C(Nc1ccc2[nH]c(C(=O)N3CC(CCl)c4ccc([N+](=O)[O-])cc43)cc2c1)c1cc2ccccc2o1 (centres undefined) | > 1100 µM (inactive) | > 1100 | > 1100 µM (inactive) | > 1100 µM (inactive) | > 1100 µM (inactive) |  | > 1100 µM (inactive) | > 1100 µM (inactive) | > 1100 µM (inactive) | 893 µM (inactive) | > 1100 µM (inactive) | > 1100 µM (inactive) | 98.4 µM (inactive) | > 1100 µM (inactive) | > 1100 µM (inactive) | > 1100 µM (inactive) | > 1100 µM (inactive) | > 1100 µM (inactive) |  |
| CC1CC(=O)Nc2cc(Cl)ccc2N1C(=O)C1CC1 (centres undefined) | > 100 µM (inactive) | > 100 | > 100 µM (inactive) | > 100 µM (inactive) | > 100 µM (inactive) | > 100 µM (inactive) | > 100 µM (inactive) | > 100 µM (inactive) |  | > 100 µM (inactive) | > 100 µM (inactive) | > 100 µM (inactive) | > 100 µM (inactive) | > 100 µM (inactive) | > 100 µM (inactive) | > 100 µM (inactive) | > 100 µM (inactive) | > 100 µM (inactive) |  |
| S=C(/N=c1\sc(Nc2ccc(Cl)cc2)nc2sc3c(c12)CCN(N1CCc2c(sc4nc(Nc5ccc(Cl)cc5)s/c(=N\C(=S)Nc5ccc(Cl)cc5)c24)C1)C3)Nc1ccc(Cl)cc1 | 61.7 µM (inactive) | 42.2 | 43.5 µM (inactive) | 42.3 µM (inactive) | > 100 µM (inactive) |  | 19.2 µM (inactive) | 25.4 µM (inactive) | 48 µM (inactive) | 26.7 µM (inactive) | 19 µM (inactive) | > 100 µM (inactive) | 33.8 µM (inactive) |  | 35.7 µM (inactive) | 23.4 µM (inactive) | 17.9 µM (inactive) |  |  |
| C[n+]1c(-c2ccc(/C=N/Nc3ccnc(N/N=C/c4ccc(-c5cn6ccccc6[n+]5C)cc4)n3)cc2)cn2ccccc21 | > 100 µM (inactive) | 98.9 | 24.2 µM (inactive) |  | 88.9 µM (inactive) |  | > 100 µM (inactive) |  | 31.9 µM (inactive) | 60.4 µM (inactive) | 24.7 µM (inactive) | 30.5 µM (inactive) | 31.3 µM (inactive) | > 100 µM (inactive) | 39.3 µM (inactive) |  | 20.7 µM (inactive) |  | 59.4 µM (inactive) |
| NC(=O)CN1CCN(c2nc(N3CCCC3)c3nc(Cl)c(NCc4ccccc4)nc3n2)CC1 | 11.8 µM (inactive) | 8.67 | 9.98 µM (inactive) | 8.39 µM (inactive) | 8.63 µM (inactive) | 9.86 µM (inactive) | 9.48 µM (inactive) | 11.5 µM (inactive) | 14 µM (inactive) | 10.1 µM (inactive) | 9.48 µM (inactive) | 9.66 µM (inactive) | 9.12 µM (inactive) | 16 µM (inactive) | 12.2 µM (inactive) | 9.66 µM (inactive) | 8 µM (inactive) | 13.8 µM (inactive) |  |
| CN(C)CCCNc1c2ccccc2[n+]([O-])c2ccccc12 | 40.6 µM (inactive) | 41.4 | 56.8 µM (inactive) | 66.8 µM (inactive) | 74.6 µM (inactive) | 31.4 µM (inactive) | 46.1 µM (inactive) | > 100 µM (inactive) | > 100 µM (inactive) | 38.8 µM (inactive) | 7.06 µM (inactive) | 22.6 µM (inactive) | 27.5 µM (inactive) | 27.1 µM (inactive) | 37.3 µM (inactive) | > 100 µM (inactive) | 34 µM (inactive) | 62.1 µM (inactive) |  |
| Cc1ccc2nc3c(=O)[nH]c(=O)nc-3n(C)c2c1C | > 100 µM (inactive) | > 100 | > 100 µM (inactive) | > 100 µM (inactive) | > 100 µM (inactive) | > 100 µM (inactive) | > 100 µM (inactive) | > 100 µM (inactive) | > 100 µM (inactive) | > 100 µM (inactive) | > 100 µM (inactive) | 12.1 µM (inactive) | > 100 µM (inactive) | > 100 µM (inactive) | > 100 µM (inactive) | > 100 µM (inactive) | > 100 µM (inactive) | > 100 µM (inactive) |  |
| CCCCCCCCCCCCCCCCOP(=O)(O)OP(=O)(O)OCC1OC(n2ccc(N)nc2=O)CC1O (centres undefined) | > 100 µM (inactive) | > 100 | > 100 µM (inactive) | > 100 µM (inactive) | > 100 µM (inactive) | > 100 µM (inactive) | > 100 µM (inactive) |  | > 100 µM (inactive) | > 100 µM (inactive) | > 100 µM (inactive) | > 100 µM (inactive) | > 100 µM (inactive) | > 100 µM (inactive) | > 100 µM (inactive) | > 100 µM (inactive) | > 100 µM (inactive) | > 100 µM (inactive) |  |
| CC12CCC(C(Nc3cc(C(F)(F)F)cc(C(F)(F)F)c3)C1=O)C2(C)C (centres undefined) | > 100 µM (inactive) | > 100 | > 100 µM (inactive) | > 100 µM (inactive) | > 100 µM (inactive) | > 100 µM (inactive) |  | > 100 µM (inactive) | > 100 µM (inactive) | > 100 µM (inactive) | > 100 µM (inactive) |  | > 100 µM (inactive) | > 100 µM (inactive) | > 100 µM (inactive) | > 100 µM (inactive) | > 100 µM (inactive) |  | > 100 µM (inactive) |
| O=C1c2ccccc2C(=O)N1CC1(C(=O)O)NCCS1(=O)=O (centres undefined) | 91.4 µM (inactive) | > 100 | > 100 µM (inactive) | > 100 µM (inactive) | > 100 µM (inactive) | > 100 µM (inactive) | > 100 µM (inactive) |  | > 100 µM (inactive) | > 100 µM (inactive) | > 100 µM (inactive) | > 100 µM (inactive) | > 100 µM (inactive) | > 100 µM (inactive) | > 100 µM (inactive) | > 100 µM (inactive) | > 100 µM (inactive) | > 100 µM (inactive) | > 100 µM (inactive) |
